Test [1] concerns coronin 1 promoter. The test is described as follows: Fluorescence-based screening assay: coronin 1 promoter driven GFP in RBL cells (microplate reader / microscopy). The format is cell-based. Conditions: RBL, 48 h, read-out: GFP values (%). The protocol:
The murine coronin 1 promoter sequences of SEQ ID NO: 1-6 were each cloned into a plasmid lacking a promoter (promoterless) but containing a destabilized Green Fluorescence Protein (GFP) cassette. Rat Basophil Leukemia (RBL) cells were transfected with the plasmids, stable GFP expressing cells were enriched, incubated with various compounds and assessed for coronin 1 promoter inhibition by assessing green fluorescence values (FIG. 2).
The plasmids were independently transfected into immune cells (Rat basophil Leukemia, RBL cells) to generate green and red fluorescent RBL cells that were subsequently enriched by means of flow cytometry. These cells were then mixed in equal ratio (1:1) and incubated in a 96 well plate at 100,000 cells/well in a volume of 200 μl of phenol red free RPMI supplemented with 8% fetal calf serum, L-glutamate and antibiotics (penicillin, […]) from available chemical libraries. At defined time points (8 h, 24 h and 48 h), the GFP and RFP fluorescence was measured using a 96 well microplate reader (Synergy, BioTek Instruments). […] Selected compounds show different levels of modulation of coronin 1 promoter driven GFP and CMV promoter driven RFP fluorescence. GFP and RFP fluorescence were analyzed with a microplate reader upon incubation with the top coronin 1 promoter inhibiting compounds. Shown are percentage of GFP reduction (left column) and percentage of RFP reduction (right column) for the compounds at 5 μg/ml concentration at 48 h. Cycloheximide (CHX) serves as positive control whereas media and DMSO serve as negative controls. […] Cells were imaged using a fluorescence microscope to validate fluorescence inhibition (FIG. 3A) and as well assess morphology and viability (in addition to GFP down regulation confirmation). In addition, quantitative Polymerase Chain Reaction (qPCR) for coronin 1 mRNA transcripts reveal reduction with compound 11 (FIG. 3B). The primers used for the qPCR on RBL cells are listed below as follows;

The test system of test [2] is early cytomegalovirus promoter. The test is described as follows: Screening assay control: CMV promoter driven RFP in RBL cells (microplate reader). The format is cell-based. Conditions: 48 h. The protocol:
As an unrelated promoter, the early cytomegaloviral promoter element was cloned into a promoterless Red Fluorescence Protein (RFP) expression plasmid. Rat Basophil Leukemia (RBL) cells were transfected with the plasmid, stable RFP expressing cells enriched, incubated with various compounds and were assessed for red fluorescence values. Analyzing the inhibition of an unrelated promoter (in this case, early cytomegalovirus promoter) that drove Red Fluorescence Protein (RFP) expression assessed non-specificity of the compound under analysis.
The plasmids were independently transfected into immune cells (Rat basophil Leukemia, RBL cells) to generate green and red fluorescent RBL cells that were subsequently enriched by means of flow cytometry. These cells were then mixed in equal ratio (1:1) and incubated in a 96 well plate at 100,000 cells/well in a volume of 200 μl of phenol red free RPMI supplemented with 8% fetal calf serum, L-glutamate and antibiotics (penicillin, streptomycin) and various compounds (3 and 5 μg/ml concentrations) from available chemical libraries. At defined time points (8 h, 24 h and 48 h), the GFP and RFP fluorescence was measured using a 96 well microplate reader (Synergy, BioTek Instruments). […] Selected compounds show different levels of modulation of coronin 1 promoter driven GFP and CMV promoter driven RFP fluorescence. GFP and RFP fluorescence were analyzed with a microplate reader upon incubation with the top coronin 1 promoter inhibiting compounds. Shown are percentage of GFP reduction (left column) and percentage of RFP reduction (right column) for the compounds at 5 μg/ml concentration at 48 h. Cycloheximide (CHX) serves as positive control whereas media and DMSO serve as negative controls. […] Cells were imaged using a fluorescence microscope to validate fluorescence inhibition (FIG. 3A) and as well assess morphology and viability (in addition to GFP down regulation confirmation). In addition, quantitative Polymerase Chain Reaction (qPCR) for coronin 1 mRNA transcripts reveal reduction with compound 11 (FIG. 3B). The primers used for the qPCR on RBL cells are listed below as follows;

The subject of test [3] is coronin 1 promoter. The test is described as follows: EC50 analysis for coronin 1 promoter driven GFP inhibition by flow cytometry in RBL cells. The format is cell-based. Conditions: RBL cells, 48-65 h, flow cytometry. On the procedure:
RBL cells that had been incubated with the indicated calcium channel blockers (amlodipine (3.125 μM) and verapamil (8 μM) concentrations for 48 h were analyzed by flow cytometry for any alteration in coronin 1 promoter driven GFP fluorescence. The results reveal no effect of calcium channel blockers on coronin 1 promoter activity (FIG. 4).
(§1) RBL cells expressing GFP under coronin 1 promoter and optionally with RBL cells expressing RFP under CMV promoter were mixed in equal numbers and incubated with the compounds at indicated concentrations for 48-65 h and analyzed by flow cytometry for alteration in coronin 1 promoter (GFP fluorescence), CMV promoter (RFP fluorescence) values. In addition, the cells were labelled with live-dead marker for assessing cell viability status by flow cytometry. Cycloheximide (CHX) serves as positive control and DMSO serves as negative controls. Effective Concentration (EC50) values for coronin 1 promoter inhibition via GFP fluorescence analysis, non-specific promoter inhibition via CMV promoter driven-RFP fluorescence analysis and cell viability via live/dead staining as a measure for toxicity in flow cytometry for compounds (10-22 and 50a-65a) are shown in Table 6 and Table 7. Based on the EC50 analysis of the inhibition of coronin 1 promoter driven GFP fluorescence the (4S,7R)-configurated eutomers were identified (Structures FIG. 9A-C). This is exemplified for compounds containing two stereocenters by eutomers 11c and 13a. […] Subsequent EC50 evaluations (Table 7) were performed with compound 13a as standard for relative potency normalized to a value of 1.00 (relative potency calculated as [EC50 GFP inhibition 13a]/[EC50 GFP inhibition compound of interest]).
On the technique in general: In flow cytometry, cells or beads pass a laser one at a time.

In another test the test system is RBL cells. The test is described as follows: Cell viability by live-dead staining (cytotoxicity), flow cytometry. The format is cell-based, Rat. Conditions: cell viability via live/dead staining, 48-65 h, read-out: EC50 Toxicity. The protocol:
as §1

SMILES strings stand for the structures. Read-outs that look alike come from different tables or passages of the source. Bounds are passed on as bounds.

`CC1=C(C(=O)OCC2CCCO2)C(c2ccsc2)C2=C(C[C@@H](c3cccs3)CC2=O)N1` (mixture of isomers) [Comp. 7, tetrahydro-2-furanylmethyl-2-methyl-5-oxo-7-(2-thienyl)-4-(3-thienyl)-1,4,5,6,7,8-hexahydro-3-quinolinecarboxylate]: the activity at 5 µg/mL came to 77% in the test on coronin 1 promoter [1] (5 μg/ml, microplate reader, DMSO = 100) and 95% in test [2] (5 μg/ml, microplate reader, DMSO = 100, read-out: RFP values (%)).
As a reminder, the EC50 is the concentration giving half of the maximal effect. As for `COc1ccccc1[C@H]1CC(=O)C2=C(C1)NC(C)=C(C(=O)OC[C@@H]1CCCO1)[C@H]2c1cccc(O)c1` (racemic) [12c, tetrahydro-2-furanylmethyl-4-(3-hydroxyphenyl)-7-(2-methoxyphenyl)-2-methyl-5-oxo-1,4,5,6,7,8-hexahydro-3-quinolinecarboxylate], the EC50 with coronin 1 promoter [3] (RBL) was 200 nM; in the test on RBL cells (Rattus norvegicus, RBL), over 4000 nM.
On to `COC(=O)C1=C(C)NC2=C(C(=O)C[C@H](c3ccccc3OC)C2)[C@@H]1c1cccc(O)c1` (stereo in doubt) [11a, methyl-4-(3-hydroxyphenyl)-7-(2-methoxyphenyl)-2-methyl-5-oxo-1,4,5,6,7,8-hexahydro-3-quinolinecarboxylate], for which the concentration giving a half-maximal response (EC50) with coronin 1 promoter [3] was 500 nM; in the test with RBL cells (Rattus norvegicus, RBL), over 9000 nM.
Regarding `COC(=O)C1=C(C)NC2=C(C(=O)C[C@H](c3ccccc3OC)C2)[C@H]1c1cccc(O)c1` (stereo in doubt) [11b, methyl-4-(3-hydroxyphenyl)-7-(2-methoxyphenyl)-2-methyl-5-oxo-1,4,5,6,7,8-hexahydro-3-quinolinecarboxylate], the EC50 with coronin 1 promoter [3] (RBL) was over 36000 nM; in the test on RBL cells (Rattus norvegicus, RBL), over 36000 nM.
Regarding `COc1ccccc1[C@H]1CC(=O)C2=C(C1)NC(C)=C(C(=O)OCC1CCCO1)[C@H]2c1cccc(O)c1` (stereo in doubt) [12a, tetrahydro-2-furanylmethyl-4-(3-hydroxyphenyl)-7-(2-methoxyphenyl)-2-methyl-5-oxo-1,4,5,6,7,8-hexahydro-3-quinolinecarboxylate], the EC50 in the test on coronin 1 promoter [3] (RBL) was 200 nM; with RBL cells (Rattus norvegicus, RBL), over 30000 nM.
Taken in the same sequence, the figures for `COc1ccccc1[C@H]1CC(=O)C2=C(C1)NC(C)=C(C(=O)OCC1CCCO1)[C@@H]2c1cccc(O)c1` (stereo in doubt) [12b, tetrahydro-2-furanylmethyl-4-(3-hydroxyphenyl)-7-(2-methoxyphenyl)-2-methyl-5-oxo-1,4,5,6,7,8-hexahydro-3-quinolinecarboxylate] were over 30000 nM and over 30000 nM.
Consider `COC(=O)C1=C(C)NC2=C(C(=O)C[C@H](c3ccccc3OC)C2)[C@@H]1c1cccc(O)c1` [11c, methyl (4S, 7R)-4-(3-hydroxyphenyl)-7-(2-methoxyphenyl)-2-methyl-5-oxo-1,4,5,6,7,8-hexahydro-3-quinolinecarboxylate], for which the EC50 in the test on coronin 1 promoter [3] was 175 nM; in the test on RBL cells it was over 9000 nM.
Take `COC(=O)C1=C(C)NC2=C(C(=O)C[C@@H](c3ccccc3OC)C2)[C@H]1c1cccc(O)c1` [11d, methyl-4-(3-hydroxyphenyl)-7-(2-methoxyphenyl)-2-methyl-5-oxo-1,4,5,6,7,8-hexahydro-3-quinolinecarboxylate]: the EC50 in the test with coronin 1 promoter [3] (RBL) is 2000 nM; with RBL cells (Rattus norvegicus, RBL) it was over 18000 nM.
In the case of `COc1ccccc1[C@@H]1CC(=O)C2=C(C1)NC(C)=C(C(=O)OC[C@@H]1CCCO1)[C@@H]2c1cccc(O)c1` [12f, tetrahydro-2-furanylmethyl-4-(3-hydroxyphenyl)-7-(2-methoxyphenyl)-2-methyl-5-oxo-1,4,5,6,7,8-hexahydro-3-quinolinecarboxylate], the EC50 in the test with coronin 1 promoter [3] (RBL) was 2500 nM; with RBL cells (Rattus norvegicus, RBL) it was over 2000 nM.
Take `C[C@@H]1C[C@@H]([C@H](O)CC2CC(=O)NC(=O)C2)C(=O)[C@@H](C)C1` [CHX, cycloheximide, reference compound]: the activity at 5 µg/mL in the test on coronin 1 promoter [1] was found to be 21%; in test [2] (read-out: RFP values (%)), 40%.
As for `COC(=O)C1=C(C)NC2=C(C(=O)CC(c3ccccc3OC)C2)C1c1ccccc1` (stereo not shown) [compound 14, methyl 7-(2-methoxyphenyl)-2-methyl-5-oxo-4-phenyl-1,4,5,6,7,8-hexahydroquinoline-3-carboxylate], the EC50 in the test on coronin 1 promoter [3] (RBL) is 250 nM; in the test on RBL cells (Rattus norvegicus, RBL) it was over 6000 nM.
`COC(=O)C1=C(C)NC2=C(C(=O)CC(c3ccccc3OC)C2)C1c1cccc(OC)c1` (stereo not shown) [compound 15, methyl 7-(2-methoxyphenyl)-4-(3-methoxyphenyl)-2-methyl-5-oxo-1,4,5,6,7,8-hexahydroquinoline-3-carboxylate]: the EC50 in the test on coronin 1 promoter [3] (RBL) is 1200 nM; in the test with RBL cells (Rattus norvegicus, RBL) it was over 15000 nM.
The matching figures for `COC(=O)C1=C(C)NC2=C(C(=O)CC(c3ccccc3OC)C2)C1c1ccccc1O` (stereo not shown) [compound 16, methyl 4-(2-hydroxyphenyl)-7-(2-methoxyphenyl)-2-methyl-5-oxo-1,4,5,6,7,8-hexahydroquinoline-3-carboxylate]: 900 nM and over 7500 nM.
Take `COCCCCOC(=O)C1=C(C)NC2=C(C(=O)CC(c3ccccc3OC)C2)C1c1cccc(O)c1` (stereo not shown) [compound 17, 4-methoxybutyl 4-(3-hydroxyphenyl)-7-(2-methoxyphenyl)-2-methyl-5-oxo-1,4,5,6,7,8-hexahydroquinoline-3-carboxylate]: the EC50 with coronin 1 promoter [3] (RBL) was 100 nM; in the test with RBL cells (Rattus norvegicus, RBL), over 5000 nM.
The matching figures for `COc1ccccc1C1CC(=O)C2=C(C1)NC(C)=C(C(=O)OCC1CC(C)(C)OC(C)(C)C1)C2c1cccc(O)c1` (stereo not shown) [compound 19, (2,2,6,6-tetramethyltetrahydro-2H-pyran-4-yl)methyl 4-(3-hydroxyphenyl)-7-(2-methoxyphenyl)-2-methyl-5-oxo-1,4,5,6,7,8-hexahydroquinoline-3-carboxylate]: 160 nM and over 2500 nM.
The matching figures for `COc1ccccc1C1CC(=O)C2=C(C1)NC(C)=C(C(=O)OC1COC1)C2c1cccc(O)c1` (stereo not shown) [compound 20, oxetan-3-yl 4-(3-hydroxyphenyl)-7-(2-methoxyphenyl)-2-methyl-5-oxo-1,4,5,6,7,8-hexahydroquinoline-3-carboxylate]: 500 nM and over 2500 nM.
On to `COc1ccccc1C1CC(=O)C2=C(C1)NC(C)=C(C(=O)OC(C)(C)C)C2c1cccc(O)c1` (stereo not shown) [compound 21, tert-butyl 4-(3-hydroxyphenyl)-7-(2-methoxyphenyl)-2-methyl-5-oxo-1,4,5,6,7,8-hexahydroquinoline-3-carboxylate], for which the concentration for a half-maximal effect (EC50) with coronin 1 promoter [3] (RBL) is 280 nM; in the test on RBL cells (Rattus norvegicus, RBL), over 2500 nM.

The values above are taken from patent US20260102387A1, “IMMUNOSUPPRESSIVE COMPOUNDS” (UNIVERSITÄT BASEL, priority 2022, published 2026).
